Laboratory results from patent publication US20190046627A1, “USE OF A GNP-LLO91-99 COMPLEX FOR THE TREATMENT AND PREVENTION OF CANCER” (FUNDACIÓN INSTITUTO DE INVESTIGACIÓN MARQUES DE VALDECILLA, priority 2016, published 2019).
“Also recorded” adds a separate entry of the source. No end group written: not given here.

How the values were obtained:
hepatocarcinomas = test: Subcutaneous tumor transplant model (Example 9); assay type: in vivo, mice; details: subcutaneous transplants, C57BL/6, 50 μg/ml in-situ for 7 days
Description: (§1) 1.—Tumor cells. The cells used are: Hepa1-6, murine hepatocarcinoma, TC-1, murine lung carcinoma; B16F10, murine melanoma; A-375, human melanoma; hamster melanoma (ATCC).
(§2) 4.—Subcutaneous tumor transplant model. 8-12 week old females of the strain C57BL/6 are inoculated in the right flank with 1×10^5 tumor cells for 7 days in order to develop a measurable tumor (4-6 mm thickness). Subsequently, the tumors are inoculated in-situ with 50 μg/ml of the GNP-LLO91-99 gold nanoparticles for 7 days. The size of the tumors is measured with a gauge and is expressed in volume using the following formula: (length×(width)^2)/2.

melanomas = test: Subcutaneous tumor transplant model (Example 9); assay type: in vivo, mice; details: subcutaneous transplants, C57BL/6, 50 μg/ml in-situ for 7 days
Description: as §1, §2

lung cancer cells = test: Subcutaneous tumor transplant model (Example 9); assay type: in vivo, mice; details: subcutaneous transplants, C57BL/6, 50 μg/ml in-situ for 7 days
Description: as §1, §2

glioblastoma (RG-1) = test: In vitro apoptosis-necrosis, flow cytometry annexin V-APC / 7-ADD; assay type: cell-based; details: 10 μg/ml, 16 hours
Description: (§3) 2.—In vitro apoptosis-necrosis. The different tumor cells (1×10^6 cells) are treated with 10 μg/ml of the GNP-LLO91-99 gold nanoparticles in culture plates, 16 hours prior to the apoptosis-necrosis analysis, including cells of each type of tumor without treatment with the gold nanoparticles (control). Following washing, the cells are analyzed by means of flow cytometry using two specific products, annexin V conjugated with the APC fluorochrome and the fluorescent marker for binding to DNA, 7-ADD (7-amino-actinomycin D). Apoptosis and necrosis in the tumor cells are analyzed by means of the differential marking with annexin V-APC and 7-ADD expressed as percentages. While the necrosis is indicated as the percentage of cells doubly marked with annexin V-APC and 7-ADD, the apoptosis is expressed as the percentage of cells marked only with annexin V.

murine melanoma B16OVA = test: Reduction of tumor size, monotherapy or combination with immunological control point immunotherapies (Example 4); assay type: in vivo, mice; details: s.c. B16OVA
Description: For the study of the reduction of the tumor in adults and increasing the survival making use of different immunotherapies with immunological control points and their comparison as a monotherapy or combination therapy with that of the invention, 5×10^5 cells of murine melanoma B16OVA were inoculated in a subcutaneous manner just like in FIG. 1 (Example 2). Following 7 days post-inoculation, 50 μg/ml of the therapy of the invention were inoculated in the tumors for 7 days as a monotherapy, GNP-LLO91-99 (gluconanoparticles synthesized with the peptide from listeriolysin O of Listeria monocytogenes, LLO91-99), or in combination with the following immunotherapies with immunological control points, anti-CTLA-4 or anti-PD-1 in a dose of 100 μg/mouse every 2 days up to a total of 7 days or no particle (NT).
Following this treatment, the mice were sacrifice at different times following the therapies, 14, 21 or 30 days in total. The results are shown in FIG. 3A following the sacrifice of the mice, recovery of the tumors and measuring of their size with a gauge. In another similar experiment, the mice are not sacrificed and the effect of the therapies is evaluated in the survival of the mice.

murine melanoma B16F10 = test: Reduction of the size of the tumor, subcutaneous murine melanoma in adult mice (Example 2); assay type: in vivo; details: adult C57BL/6 mice, s.c. B16F10 established 7 days, 50 μg/ml inoculated in the tumors for 5 days
Description: For the study of the reduction of the size of the tumor making use of different therapies and their comparison with that of the invention, 1×10^6 cells of murine melanoma B16F10 were inoculated in a subcutaneous manner in the left ventral flank of 8-12-week old female mice of the C57BL/6 strain.
After 7 days post-inoculation, 50 μg/ml of the following therapies were inoculated in the tumors for 5 days: LLO91-99 (only peptide from listeriolysin O of Listeria monocytogenes, LLO91-99), GNP (empty gluconanoparticles), GNP-LLO91-99 (gluconanoparticles synthesized with the peptide from listeriolysin O of Listeria monocytogenes, LLO91-99), GNP-GAPDH1-22 (nanoparticles synthesized with the peptide from glyceraldehyde-3-phosphate dehydrogenase of Listeria monocytogenes, GAPDH1-22) or no particle (NT). Dendritic cells loaded with the LLO91-99 (1×10^6 DC-LLO91-99) peptide were also included as a control, a vector previously used in therapy.
Following this treatment, the mice were sacrificed and the tumors recovered, measuring their size with a gauge.

[1] = In vitro apoptosis-necrosis, flow cytometry annexin V-APC / 7-ADD; assay type: cell-based, hamster; details: 10 μg/ml, 16 hours, CHO
Description: as §1, §3

GNP-LLO91-99: gluconanoparticles synthesized with the peptide from listeriolysin O of Listeria monocytogenes, LLO91-99 (GYKDGNEYI; also: gold glyconanoparticle conjugate; UniProt P13128 91-99, looked up, fragment)
in vivo inhibitory effect of the tumor (hepatocarcinomas): inhibitory effect of the tumor is also observed in vivo | in vivo inhibitory effect of the tumor (melanomas): inhibitory effect of the tumor is also observed in vivo | in vivo inhibitory effect of the tumor (lung cancer cells): inhibitory effect of the tumor is also observed in vivo | effect of inducing apoptosis (glioblastoma (RG-1)): not as significant | induction of tumor apoptosis and necrosis (glioblastoma (RG-1)): induce both necrosis and apoptosis with the same percentages; also recorded: induce both tumor apoptosis and necrosis | tumor regression (murine melanoma B16OVA; combination therapy with anti-CTLA-4 (100 μg/mouse every 2 days), at 14 days): up to 90% | tumor regression (murine melanoma B16OVA; combination therapy with anti-CTLA-4 (100 μg/mouse every 2 days), at 30 days): up to 90% | tumor regression (murine melanoma B16OVA; combination with anti-PD-1 (100 μg/mouse every 2 days), at 14 days): 100% | tumor regression (murine melanoma B16OVA; combination with anti-PD-1 (100 μg/mouse every 2 days), at 30 days): 100% | tumor regression (murine melanoma B16OVA; monotherapy, 50 μg/ml in the tumors, 7 days): 80% | tumor regression (murine melanoma B16OVA; monotherapy, 50 μg/ml in the tumors, at 14 days): 90% | tumor regression (murine melanoma B16OVA; monotherapy, 50 μg/ml in the tumors, at 30 days): 90% | therapeutic effect on the melanoma (in words) (murine melanoma B16F10): does achieve a significant tumor regression | tumor regression (murine melanoma B16F10): 90% | induction of tumor apoptosis and necrosis / inhibitory effect [1]: do not cause any inhibitory effect
